The text below walks through data of US20240116985A1, “STAPLED PEPTIDES AND METHODS THEREOF” (priority 2020, published 2024).

The target in data set [1] is T1, full-length beta-Catenin (Uniprot ID P35222) (Homo sapiens, UniProt P35222).
T1 construct: 10 nM full-length beta-Catenin (Uniprot ID P35222)
T1 sequence (P35222 1-781): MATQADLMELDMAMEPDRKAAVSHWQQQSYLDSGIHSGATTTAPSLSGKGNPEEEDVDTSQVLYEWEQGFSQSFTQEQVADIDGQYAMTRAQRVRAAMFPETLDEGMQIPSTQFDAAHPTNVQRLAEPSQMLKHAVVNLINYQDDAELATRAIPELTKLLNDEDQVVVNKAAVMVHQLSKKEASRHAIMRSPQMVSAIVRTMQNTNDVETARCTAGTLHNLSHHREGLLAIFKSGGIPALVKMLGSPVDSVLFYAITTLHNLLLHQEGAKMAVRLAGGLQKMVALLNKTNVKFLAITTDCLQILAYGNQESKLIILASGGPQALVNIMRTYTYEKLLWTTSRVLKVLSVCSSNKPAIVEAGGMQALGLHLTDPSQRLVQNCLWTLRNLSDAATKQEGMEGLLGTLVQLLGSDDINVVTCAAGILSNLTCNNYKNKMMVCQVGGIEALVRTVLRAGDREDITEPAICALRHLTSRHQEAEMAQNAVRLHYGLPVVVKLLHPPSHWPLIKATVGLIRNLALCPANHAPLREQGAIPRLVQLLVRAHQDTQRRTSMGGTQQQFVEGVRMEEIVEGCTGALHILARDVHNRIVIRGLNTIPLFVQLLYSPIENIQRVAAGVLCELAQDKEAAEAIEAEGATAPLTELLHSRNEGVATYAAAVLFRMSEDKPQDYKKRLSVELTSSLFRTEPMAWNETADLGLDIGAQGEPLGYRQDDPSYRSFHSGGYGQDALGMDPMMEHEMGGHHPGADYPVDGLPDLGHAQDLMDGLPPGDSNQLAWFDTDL
Put plainly: Fluorescence polarization IC50 (beta-catenin / 5FAM-TCF4 10-53 competition). Type of data set: binding. The settings on record: fluorescence polarization; read-out: beta-Catenin FP IC50. Background: Polarisation of emitted light reports the rotation of a fluorescent probe.

A short description of data set [2]: Solubility in PBS. Format: physicochemical. Put shortly: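 HPLC quantitation of peptide remaining in the PBS supernatant after ultracentrifugation, referenced to a 50 μM solution in DMSO.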
In data set [3] the target is T2, beta-catenin/TCF4 engagement (Homo sapiens, UniProt P35222).
T2 construct: expressed in transfected cells; host or cells: HEK293
T2 sequence (P35222 1-781): T1 sequence (P35222 1-781)
Put plainly: Nano-BRET target engagement assay (B-cat-Halo & TCF4-Luc in HEK293 cells). Type of data set: cell-based. The note with it: absolute IC50; read-out: NanoBRET Abs IC50. (In BRET a luciferase serves as donor, and the signal depends on an acceptor being close.)

Converted amounts (≈) assume the structure as drawn. Where two headings read alike, the source gives them in different places. A value given as a limit tells only on which side of the number the result lay.

Regarding `CC(=O)N1CCC[C@]12CC=CCCCC1(CCCC=CCCCOC(=O)N3CC[C@@](C(=O)N[C@@H](Cc4ccccc4Cl)C(=O)N[C@@H](Cc4csc5ccccc45)C(=O)N[C@@H](CC(C)C)C(N)=O)(C3)NC(=O)[C@H]([C@@H](C)O)NC(=O)[C@H](Cc3ccccc3)NC(=O)[C@H](C)NC(=O)[C@H](CCCCNC(C)C)NC(=O)[C@H](CC(=O)O)NC(=O)[C@H](CC(=O)O)NC1=O)NC(=O)[C@H](CC(C)(C)C)NC(=O)[C@H](CC(=O)O)NC2=O` (stereo partly drawn) [I-1274, Ac-PL3-Asp-Npg-B5-Asp-Asp-iPrLys-Ala-Phe-Thr-PyrS2-2C1F-BztA-Leu-NH2], the IC50 is 13 nM in data set [1] and more than 20000 nM in data set [3]. For the same molecule, the “Solubility” value in data set [2] is 10 µM (≈ 20.2 µg/mL).
Take `CC(=O)N1CCC[C@]12CC=CCCCC1(CCCC=CCCCOC(=O)N3CC[C@@](C(=O)N[C@@H](Cc4ccccc4Cl)C(=O)N[C@@H](Cc4csc5ccccc45)C(=O)N[C@@H](CCC(N)=O)C(N)=O)(C3)NC(=O)[C@H](CCCCNC(C)C)NC(=O)[C@H](Cc3ccccc3)NC(=O)[C@H](C)NC(=O)[C@H](C)NC(=O)[C@H](CC(=O)O)NC(=O)[C@H](CC(=O)O)NC1=O)NC(=O)[C@H](CC(C)(C)C)NC(=O)[C@H](CC(=O)O)NC2=O` (stereo partly drawn) [I-1278, Ac-PL3-Asp-Npg-B5-Asp-Asp-Ala-Ala-Phe-iPrLys-PyrS2-2C1F-BztA-Gln-NH2]: the IC50 came to 10 nM in data set [1] and 18000 nM in data set [3]. Besides, the concentration in solution in data set [2] (Solubility (uM)) (Solubility) came to 25 µM (≈ 50.1 µg/mL).
For `CC(=O)N1CCC[C@]12CC=CCCCC1(CCCC=CCCCOC(=O)N3CC[C@@](C(=O)N[C@@H](Cc4ccccc4Cl)C(=O)N[C@@H](Cc4csc5ccccc45)C(=O)N[C@H](C(N)=O)[C@@H](C)O)(C3)NC(=O)[C@H](CCCCNC(C)C)NC(=O)[C@H](Cc3ccccc3)NC(=O)[C@H](C)NC(=O)[C@H](C)NC(=O)[C@H](CC(=O)O)NC(=O)[C@H](CC(=O)O)NC1=O)NC(=O)[C@H](CC(C)(C)C)NC(=O)[C@H](CC(=O)O)NC2=O` (stereo partly drawn) [I-1279, Ac-PL3-Asp-Npg-B5-Asp-Asp-Ala-Ala-Phe-iPrLys-PyrS2-2C1F-BztA-Thr-NH2], in that order: 12 nM, 22900 nM and 14 µM (≈ 27.7 µg/mL).
With `CC(=O)N1CCC[C@]12CC=CCCCC1(CCCC=CCCCOC(=O)N3CC[C@@](C(=O)N[C@@H](Cc4ccccc4Cl)C(=O)N[C@@H](Cc4csc5ccccc45)C(=O)N[C@@H](CC(C)C)C(N)=O)(C3)NC(=O)[C@H](CCCCNC(C)C)NC(=O)[C@H](Cc3ccccc3)NC(=O)[C@H](C)NC(=O)[C@H](C)NC(=O)[C@H](CC(=O)O)NC(=O)[C@H](CC(=O)O)NC1=O)NC(=O)[C@H](CC(C)(C)C)NC(=O)[C@H](CC(=O)O)NC2=O` (stereo partly drawn) [I-1280, Ac-PL3-Asp-Npg-B5-Asp-Asp-Ala-Ala-Phe-iPrLys-PyrS2-2C1F-BztA-Leu-NH2], the IC50 amounted to 22 nM in data set [1] and 24700 nM in data set [3]. In addition, the “Solubility” value in data set [2] is 10 µM (≈ 19.9 µg/mL).
For the molecule `CC(=O)N1CCC[C@]12CC=CCCCC1(CCCC=CCCCOC(=O)N3CC[C@@](C(=O)N[C@@H](Cc4ccccc4Cl)C(=O)N[C@@H](Cc4csc5ccccc45)C(=O)N[C@@H](CCC(N)=O)C(N)=O)(C3)NC(=O)[C@H](CCCCNC(C)C)NC(=O)[C@H](Cc3ccccc3)NC(=O)[C@H](C)NC(=O)[C@H](C)NC(=O)[C@H](CCC(=O)O)NC(=O)[C@H](CC(=O)O)NC1=O)NC(=O)[C@H](CC(C)(C)C)NC(=O)[C@H](CC(=O)O)NC2=O` (stereo partly drawn) [I-1281, Ac-PL3-Asp-Npg-B5-Asp-Glu-Ala-Ala-Phe-iPrLys-PyrS2-2C1F-BztA-Gln-NH2], the IC50 in data set [1] was 10 nM; in data set [3], 22200 nM. The same molecule returned a Solubility in data set [2] (Solubility (uM)) of 14 µM (≈ 28.2 µg/mL).
For `CC(=O)N1CCC[C@]12CC=CCCCC1(CCCC=CCCCOC(=O)N3CC[C@@](C(=O)N[C@@H](Cc4ccccc4Cl)C(=O)N[C@@H](Cc4csc5ccccc45)C(=O)N[C@H](C(N)=O)[C@@H](C)O)(C3)NC(=O)[C@H](CCCCNC(C)C)NC(=O)[C@H](Cc3ccccc3)NC(=O)[C@H](C)NC(=O)[C@H](C)NC(=O)[C@H](CCC(=O)O)NC(=O)[C@H](CC(=O)O)NC1=O)NC(=O)[C@H](CC(C)(C)C)NC(=O)[C@H](CC(=O)O)NC2=O` (stereo partly drawn) [I-1282, Ac-PL3-Asp-Npg-B5-Asp-Glu-Ala-Ala-Phe-iPrLys-PyrS2-2C1F-BztA-Thr-NH2], in that order: 34 nM, 43100 nM and 24 µM (≈ 47.8 µg/mL).
`CC(=O)N1CCC[C@]12CC=CCCCC1(CCCC=CCCCOC(=O)N3CC[C@@](C(=O)N[C@@H](Cc4ccccc4Cl)C(=O)N[C@@H](Cc4csc5ccccc45)C(=O)N[C@@H](CC(C)C)C(N)=O)(C3)NC(=O)[C@H](CCCCNC(C)C)NC(=O)[C@H](Cc3ccccc3)NC(=O)[C@H](C)NC(=O)[C@H](C)NC(=O)[C@H](CCC(=O)O)NC(=O)[C@H](CC(=O)O)NC1=O)NC(=O)[C@H](CC(C)(C)C)NC(=O)[C@H](CC(=O)O)NC2=O` (stereo partly drawn) [I-1283, Ac-PL3-Asp-Npg-B5-Asp-Glu-Ala-Ala-Phe-iPrLys-PyrS2-2C1F-BztA-Leu-NH2]: the figures for the IC50 in data set [1] and in data set [3] were 26 nM and 38600 nM, respectively. Besides, in data set [2], the “Solubility” value came to 10 µM (≈ 20 µg/mL).
For the molecule `CC(=O)N1CCC[C@]12CC=CCCCC1(CCCC=CCCCOC(=O)N3CC[C@@](C(=O)N[C@@H](Cc4ccsc4)C(=O)N[C@@H](Cc4csc5ccccc45)C(=O)N[C@H](CO)[C@@H](C)O)(C3)NC(=O)[C@H](Cc3ccccc3)NC(=O)[C@H](Cc3ccccc3)NC(=O)[C@H](C)NC(=O)[C@H](C)NC(=O)[C@H](CC(=O)O)NC(=O)[C@H](CC(=O)O)NC1=O)NC(=O)[C@H](CC(C)(C)C)NC(=O)[C@H](CC(=O)O)NC2=O` (stereo partly drawn) [I-1303, Ac-PL3-Asp-Npg-B5-Asp-Asp-Ala-Ala-Phe-Phe-PyrS2-3Thi-BztA-Thro1], the IC50 was found to be 86 nM in data set [1] and 9100 nM in data set [3]. Further, the concentration in solution in data set [2] (Solubility (uM)) (Solubility) came to 28 µM (≈ 53.5 µg/mL).
With `CC(=O)N1CCC[C@]12CC=CCCCC1(CCCC=CCCCOC(=O)N3CC[C@@](C(=O)N[C@@H](Cc4ccsc4)C(=O)N[C@@H](Cc4csc5ccccc45)C(=O)N[C@H](CO)[C@@H](C)O)(C3)NC(=O)[C@H](CC(C)C)NC(=O)[C@H](Cc3ccccc3)NC(=O)[C@H](C)NC(=O)[C@H](C)NC(=O)[C@H](CC(=O)O)NC(=O)[C@H](CC(=O)O)NC1=O)NC(=O)[C@H](CC(C)(C)C)NC(=O)[C@H](CC(N)=O)NC2=O` (stereo partly drawn) [I-1304, Ac-PL3-Asn-Npg-B5-Asp-Asp-Ala-Ala-Phe-Leu-PyrS2-3Thi-BztA-Thro1], the figures for the IC50 in data set [1] and in data set [3] were 31 nM and 33600 nM, respectively. For the same molecule, the “Solubility” value in data set [2] amounted to 10 µM (≈ 18.8 µg/mL).
On to `CC(=O)N1CCC[C@]12CC=CCCCC1(CCCC=CCCCOC(=O)N3CC[C@@](C(=O)N[C@@H](Cc4ccsc4)C(=O)N[C@@H](Cc4csc5ccccc45)C(=O)N[C@H](CO)[C@@H](C)O)(C3)NC(=O)[C@H](CCO)NC(=O)[C@H](Cc3ccccc3)NC(=O)[C@H](C)NC(=O)[C@H](C)NC(=O)[C@H](CC(=O)O)NC(=O)[C@H](CC(=O)O)NC1=O)NC(=O)[C@H](CC(C)(C)C)NC(=O)[C@H](CC(=O)O)NC2=O` (stereo partly drawn) [I-1305, Ac-PL3-Asp-Npg-B5-Asp-Asp-Ala-Ala-Phe-Hse-PyrS2-3Thi-BztA-Thro1], for which the IC50 is 6 nM in data set [1] and 9700 nM in data set [3]. Besides, the concentration in solution in data set [2] (Solubility (uM)) (Solubility) came to 49 µM (≈ 91.4 µg/mL).
For the molecule `CC(=O)N1CCC[C@]12CC=CCCCC1(CCCC=CCCCCCC[C@@](C)(C(=O)N[C@@H](Cc3ccccc3Cl)C(=O)N[C@@H](Cc3csc4ccccc34)C(=O)N[C@H](CO)[C@@H](C)O)NC(=O)[C@H]([C@@H](C)O)NC(=O)[C@H](Cc3ccccc3)NC(=O)[C@H](C)NC(=O)[C@H](C)NC(=O)[C@H](CC(=O)O)NC(=O)[C@H](CC(=O)O)NC1=O)NC(=O)[C@H](CC(C)(C)C)NC(=O)[C@H](CC(=O)O)NC2=O` (stereo partly drawn) [I-1308, Ac-PL3-Asp-Npg-B5-Asp-Asp-Ala-Ala-Phe-Thr-S8-2C1F-BztA-Thro1], the IC50 in data set [1] came to 25 nM; in data set [3], 11900 nM. In data set [2] (Solubility (uM)), this molecule displayed a Solubility of 47 µM (≈ 87 µg/mL).
For `CC(=O)N1CCC[C@]12CC=CCCCC1(CCCC=CCCCOC(=O)N3CC[C@@](C(=O)N[C@@H](Cc4ccccc4Cl)C(=O)N[C@@H](Cc4csc5ccccc45)C(=O)N[C@H](CO)[C@@H](C)O)(C3)NC(=O)[C@H]([C@@H](C)O)NC(=O)[C@H](Cc3ccccc3)NC(=O)[C@H](C)NC(=O)[C@H](C)NC(=O)[C@H]([C@@H](C)O)NC(=O)[C@H](CC(=O)O)NC1=O)NC(=O)[C@H](CC(C)(C)C)NC(=O)[C@H](CC(=O)O)NC2=O` (stereo partly drawn) [I-1309, Ac-PL3-Asp-Npg-B5-Asp-Thr-Ala-Ala-Phe-Thr-PyrS2-2C1F-BztA-Thro1], the IC50 in data set [1] was 59 nM; in data set [3], 28600 nM. In addition, the “Solubility” value in data set [2] came to 10 µM (≈ 18.8 µg/mL).

What is called IC50 is the concentration at which inhibition is half-maximal. Usually Solubility stands for the dissolved amount per volume that the medium holds. Low values mean a poorly soluble substance, high ones a readily soluble substance.
